Assay results published in patent publication US20040121994A1, “Novel amides that activate soluble guanylate cyclase” (priority 2002, published 2004).

Biological target: T1, soluble guanylate cyclase (sGC), α1 and β1 subunits of guanylate cyclase expressed in Sf9 cells (Homo sapiens, UniProt Q02108+Q02153)
T1 construct: made in house; host or cells: Sf9 insect cells (baculovirus co-infection)
T1 sequence (Q02108 1-690): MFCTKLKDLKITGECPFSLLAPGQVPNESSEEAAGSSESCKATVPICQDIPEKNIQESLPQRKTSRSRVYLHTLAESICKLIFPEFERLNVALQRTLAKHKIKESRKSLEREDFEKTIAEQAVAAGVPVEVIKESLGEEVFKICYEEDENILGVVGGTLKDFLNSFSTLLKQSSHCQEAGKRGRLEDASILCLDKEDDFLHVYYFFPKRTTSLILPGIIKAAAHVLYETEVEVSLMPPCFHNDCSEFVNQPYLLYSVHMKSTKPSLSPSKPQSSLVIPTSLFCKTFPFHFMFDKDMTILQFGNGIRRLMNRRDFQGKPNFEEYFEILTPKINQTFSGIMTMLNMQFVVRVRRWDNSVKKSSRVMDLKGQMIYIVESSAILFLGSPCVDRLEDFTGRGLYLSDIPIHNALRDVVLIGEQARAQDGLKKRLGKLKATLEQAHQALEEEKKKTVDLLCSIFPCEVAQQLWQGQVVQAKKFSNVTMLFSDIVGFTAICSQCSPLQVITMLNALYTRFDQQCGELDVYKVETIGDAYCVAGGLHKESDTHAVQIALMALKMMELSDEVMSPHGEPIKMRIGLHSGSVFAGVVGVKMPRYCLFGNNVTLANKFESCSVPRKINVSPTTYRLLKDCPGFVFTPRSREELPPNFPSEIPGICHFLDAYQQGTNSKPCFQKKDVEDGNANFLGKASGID
T1 sequence (Q02153 1-619): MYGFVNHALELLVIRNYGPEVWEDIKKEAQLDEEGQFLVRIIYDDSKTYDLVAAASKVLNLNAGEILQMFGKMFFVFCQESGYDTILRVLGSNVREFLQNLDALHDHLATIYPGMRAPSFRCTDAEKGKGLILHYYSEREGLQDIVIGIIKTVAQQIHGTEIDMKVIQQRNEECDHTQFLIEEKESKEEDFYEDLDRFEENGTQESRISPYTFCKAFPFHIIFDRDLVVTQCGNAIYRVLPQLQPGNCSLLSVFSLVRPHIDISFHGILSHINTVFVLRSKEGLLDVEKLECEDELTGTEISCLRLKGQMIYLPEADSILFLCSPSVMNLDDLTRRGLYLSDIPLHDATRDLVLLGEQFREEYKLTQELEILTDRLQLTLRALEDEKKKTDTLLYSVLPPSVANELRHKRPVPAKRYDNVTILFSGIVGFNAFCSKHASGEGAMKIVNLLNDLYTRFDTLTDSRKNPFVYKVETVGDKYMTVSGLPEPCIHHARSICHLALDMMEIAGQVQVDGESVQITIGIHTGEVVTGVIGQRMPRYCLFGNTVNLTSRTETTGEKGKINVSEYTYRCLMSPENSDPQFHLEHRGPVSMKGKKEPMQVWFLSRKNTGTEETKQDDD
Test: Guanylate cyclase assay (formation of cyclic GMP from GTP)
Format: biochemical
Details: for Mean activation at 100 μM: (activity of compound at 100 μM with 1 μM SNP)−(activity of compound at 100 μM)/(activity of SNP at 1 μM)−(basal activity of sGC); for Mean efficacy of compound combined with 1 μM of SNP, [%]: compound at 100 μM with 1 μM sodium nitro prusside (SNP); for Mean efficacy of compound combined with 1 μM of SNP, [%] / Emax at 100 µM: normalized with the activity of 100 μM YC-1 (without SNP) as 100%; for Emax at 100 µM: compound at 100 μM without SNP, read-out: Mean basal efficacy of compound alone at 100 μM, [%]
Procedure: Sf9 cells were cultured in Sf-90011 medium supplemented with 10% (v/v) fetal calf serum at 28° C. to give a count of 6×10^5 cells/ml. The cells were then infected with a mixture of the virus stocks for the α1 and β1 subunits of guanylate cyclase at a multiplicity of infection of 0.1 pfu/cell. The cells were harvested 72 hours after infection and were pelleted by centrifugation. The resulting cell pellets were homogenized with Polytron homogenizer in 3 volumes of 20 mM Tris-HCl (pH 7.6) containing 1 mM EDTA, 5 mM dithiothreitol, 90 mM NaCl, 10% glycerol, and protease inhibitors mix (Roche Molecular Biochemicals). The homogenate was centrifuged at 50,000×g for 60 minutes and the supernatant was aliquotted and stored at −80° C.
Compounds of the present invention were dissolved in DMSO to make 100 mM and saved as stocks at −20° C. When compounds were tested, prepared 10-fold concentrated solutions with 10% DMSO. Then added 10 μl of 10-fold concentrated compound solutions to the reaction mixture of total 100 μl.
Guanylate cyclase activity was measured by the formation of cyclic GMP from GTP in a total volume of 100 μl. Guanylate cyclase-expressed Sf9 cell high-speed supernatant was used as an enzyme source for the assay. The reaction mixture containing 0.1 μl enzyme (Sf9 high-speed sup), compound solution, 50 mM Tris-HCl (pH 7.6), 4 mM MgCl2, 0.5 mM IBMX, 15 mM creatine phosphate, 20 μg creatine phosphokinase, 0.1% BSA and 1 mM GTP was incubated at 37° C. for 15 minutes. After the reaction, 0.9 ml of 50 mM sodium acetate buffer (pH 5.8) was added followed by boiling for 3 minutes to stop the reaction. The solution was centrifuged at 3000 rpm for 15 minutes at room temperature and cyclic GMP in 20 μl of the resulting supernatant was measured according to the protocol of Amersham cyclic GMP enzymeimmunoassay system (purchased from Sigma, catalogue number RPN 226).
Compounds of the present invention were tested at 100 μM with and without 1 μM sodium nitro prusside (SNP). 1-Benzyl-3-hydroxymethyl-2-furylindazole (YC-1) was included as a standard for each assay. The data was normalized with the activity of 100 μM YC-1 (without SNP) as 100%. Mean basal efficacy, in Table 1, was expressed as a percentage of 100 μM YC-1 (without SNP).
The mean activation, in Table 1, was calculated based on the formula: (activity of compound of the present invention at 100 μM with 1 μM SNP)−(activity of compound of the present invention at 100 μM)/(activity of SNP at 1 μM)−(basal activity of sGC).

For `O=C(/C=C/c1ccccc1Sc1ccc(Cl)cc1)NCCCCCO` [Example 35, (2E)-3-{2-[(4-chlorophenyl)thio]phenyl}-N-(5-hydroxypentyl)acrylamide], the “Mean activation at 100 μM” value was 6.3, the “Mean efficacy of compound combined with 1 μM of SNP, [%]” value (shortened to “Mean efficacy … [%]”) was 228% and the Emax at 100 µM was 49%.
In the case of `Cc1ccc(Sc2ccccc2/C=C/C(=O)NCCCCO)cc1` [Example 36, (2E)-N-(4-hydroxybutyl)-3-{2-[(4-methylphenyl)thio]phenyl}acrylamide], the “Mean activation at 100 μM” value is reported as 9.2, the “Mean efficacy … [%]” value is reported as 212% and the Emax at 100 µM is reported as 66%.
For `CC(O)CNC(=O)/C=C/c1ccccc1Sc1ccc(Cl)cc1` (stereo not drawn) [Example 37, (2E)-3-{2-[(4-chlorophenyl)thio]phenyl}-N-(2-hydroxypropyl)acrylamide], the “Mean activation at 100 μM” value was 30.6, the “Mean efficacy … [%]” value was 405% and the Emax at 100 µM was 70%.
For `CC(O)CCNC(=O)/C=C/c1ccccc1Sc1ccc(Cl)cc1` (stereo not drawn) [Example 38, (2E)-3-{2-[(4-chlorophenyl)thio]phenyl}-N-(3-hydroxybutyl)acrylamide], the “Mean activation at 100 μM” value was 19.0, the “Mean efficacy … [%]” value was 259% and the Emax at 100 µM was 60%.
In the case of `CCC(O)CNC(=O)/C=C/c1ccccc1Sc1ccc(Cl)cc1` (stereo not drawn) [Example 39, (2E)-3-{2-[(4-chlorophenyl)thio]phenyl}-N-(2-hydroxybutyl)acrylamide], the “Mean activation at 100 μM” value is reported as 19.3, the “Mean efficacy … [%]” value is reported as 305% and the Emax at 100 µM is reported as 73%.
For `O=C(/C=C/c1ccccc1Sc1ccc(Cl)cc1)NC1CCCCC1O` (stereo not drawn) [Example 40, (2E)-3-{2-[(4-chlorophenyl)thio]phenyl}-N-(2-hydroxycyclohexyl)acrylamide], the “Mean activation at 100 μM” value was 6.3, the “Mean efficacy … [%]” value was 366% and the Emax at 100 µM was 100%.
`O=C(/C=C/c1c(F)cccc1Sc1ccc(Cl)cc1)NCCCCO` [Example 41, (2E)-3-{2-[(4-chlorophenyl)thio]-6-fluorophenyl}-N-(4-hydroxybutyl)acrylamide] was tested, and the “Mean activation at 100 μM” value was 3.8, the “Mean efficacy … [%]” value was 69% and the Emax at 100 µM was 5%.
`Cc1ccc(Sc2ccccc2/C=C/C(=O)NC2CCC(O)CC2)cc1` (stereo not drawn) [Example 42, (2E)-N-(4-hydroxycyclohexyl)-3-{2-[(4-methylphenyl)thio]phenyl}acrylamide] was tested, and the “Mean activation at 100 μM” value was 4.8, the “Mean efficacy … [%]” value was 58% and the Emax at 100 µM was 14%.
With `COc1ccc(Sc2ccc(C)cc2)c(/C=C/C(=O)NC2CCC(O)CC2)c1` (stereo not drawn) [Example 44, (2E)-N-(4-hydroxycyclohexyl)-3-{5-methoxy-2-[(4-methylphenyl)thio]phenyl}acrylamide] the “Mean activation at 100 μM” value was 3.5, the “Mean efficacy … [%]” value was 89% and the Emax at 100 µM was 36%.
In the case of `O=C(/C=C/c1ccccc1Sc1ccccc1)NC1CCCCC1O` (stereo not drawn) [Example 46, (2E)-N-(2-hydroxycyclohexyl)-3-[2-(phenylthio)phenyl]acrylamide], the “Mean activation at 100 μM” value is reported as 4.3, the “Mean efficacy … [%]” value is reported as 121% and the Emax at 100 µM is reported as 54%.
In the case of `Cc1ccc(Sc2ccccc2/C=C/C(=O)NC2CCCCC2O)cc1` (stereo not drawn) [Example 47, (2E)-N-(2-hydroxycyclohexyl)-3-{2-[(4-methylphenyl)thio]phenyl}acrylamide], the “Mean activation at 100 μM” value is reported as 2.8, the “Mean efficacy … [%]” value is reported as 44% and the Emax at 100 µM is reported as 16%.
In the case of `COc1cccc(Sc2ccccc2/C=C/C(=O)NC2CCCCC2O)c1` (stereo not drawn) [Example 48, (2E)-N-(2-hydroxycyclohexyl)-3-{2-[(3-methoxyphenyl)thio]phenyl}acrylamide], the “Mean activation at 100 μM” value is reported as 4.6, the “Mean efficacy … [%]” value is reported as 102% and the Emax at 100 µM is reported as 20%.
For `COc1ccc(Sc2ccccc2/C=C/C(=O)NC2CCCCC2O)cc1` (stereo not drawn) [Example 49, (2E)-N-(2-hydroxycyclohexyl)-3-{2-[(4-methoxyphenyl)thio]phenyl}acrylamide], the “Mean activation at 100 μM” value was 3.7, the “Mean efficacy … [%]” value was 79% and the Emax at 100 µM was 15%.
In the case of `COc1cccc(Sc2ccccc2/C=C/C(=O)NC2CCC(O)CC2)c1` (stereo not drawn) [Example 50, (2E)-N-(4-hydroxycyclohexyl)-3-{2-[(3-methoxyphenyl)thio]phenyl}acrylamide], the “Mean activation at 100 μM” value is reported as 6.4, the “Mean efficacy … [%]” value is reported as 175% and the Emax at 100 µM is reported as 68%.
In the case of `COc1ccc(Sc2ccccc2/C=C/C(=O)NC2CCC(O)CC2)cc1` (stereo not drawn) [Example 51, (2E)-N-(4-hydroxycyclohexyl)-3-{2-[(4-methoxyphenyl)thio]phenyl}acrylamide], the “Mean activation at 100 μM” value is reported as 7.2, the “Mean efficacy … [%]” value is reported as 258% and the Emax at 100 µM is reported as 119%.
For `Cc1cccc(Sc2ccccc2/C=C/C(=O)NC2CCC(O)CC2)c1` (stereo not drawn) [Example 52, (2E)-N-(4-hydroxycyclohexyl)-3-{2-[(3-methylphenyl)thio]phenyl}acrylamide], the “Mean activation at 100 μM” value was 2.7, the “Mean efficacy … [%]” value was 50% and the Emax at 100 µM was 11%.
For `Cc1ccc(Sc2ccccc2/C=C/C(=O)NC(C)CCCC(C)(C)O)c(C)c1` (stereo not drawn) [Example 53, (2E)-3-{2-[(2,4-dimethylphenyl)thio]phenyl}-N-(5-hydroxy-1,5-dimethylhexyl)acrylamide], the “Mean activation at 100 μM” value was 1.7, the “Mean efficacy … [%]” value was 10% and the Emax at 100 µM was 4%.
For `O=C(/C=C/c1cc(F)ccc1Sc1ccc(Cl)cc1)NCCCCO` [Example 54, (2E)-3-{2-[(4-chlorophenyl)thio]-5-fluorophenyl}-N-(4-hydroxybutyl)acrylamide], the “Mean activation at 100 μM” value was 13.0, the “Mean efficacy … [%]” value was 186% and the Emax at 100 µM was 85%.
In the case of `CC(C)CCSc1ccccc1/C=C/C(=O)NC1CCC(O)CC1` (stereo not drawn) [Example 55, (2E)-N-(4-hydroxycyclohexyl)-3-{2-[(3-methylbutyl)thio]phenyl}acrylamide], the “Mean activation at 100 μM” value is reported as 5.3, the “Mean efficacy … [%]” value is reported as 213% and the Emax at 100 µM is reported as 143%.
